Measurements reported in patent US20020086876A1, “Treatment of anti-depression drug-induced sexual dysfunction with apomorphine” (priority 2000, published 2002).

Test system: sexual dysfunction in male patients taking selective serotonin reuptake inhibitors
Assay: Crossover home-use trial of sublingual apomorphine in male patients taking SSRIs (sexual function questionnaire)
Format: in vivo, human (male patients)
Details: male patients on SSRI's
Method: A crossover study of 1500 patients in a home-use trial of apomorphine on male patients was performed.
In the crossover study, a 2-4 week baseline period was used to evaluate subjects. After this time, during an initial four week treatment period, subjects received either a placebo or apomorphine, without knowing whether or not they had received the active medication. The dosage was either 2, 4, 5 or 6 mg. This initial treatment period was followed by a 24-96 hour washout period, in which no medication was taken. Subsequently, a second four week treatment period, subjects who previously had received apomorphine, were given a placebo, and subjects who previously had received the placebo were given apomorphine. Subject were to attempt coitus once each week after taking a single tablet of apomorphine sublingually. After each attempt, the subject and their partner completed a sexual function questionnaire which was later evaluated and used for final statistical analysis. In the analysis, the data for patients receiving 2, 4, 5 or 6 mg dosages was pooled.

CN1CCc2cccc3c2[C@H]1Cc1ccc(O)c(O)c1-3 [apomorphine, (R)-5,6,6a,7-tetrahydro-6-methyl-4H-dibenzo-[de,g]quinoline-10,11-diol]
patients on SSRI drugs able to have intercourse after apomorphine, relative to placebo (apomorphine versus placebo): twice as many patients on SSRI drugs were able to have intercourse
attempts successful: attempt resulted in intercourse (single sublingual tablet, pooled 2, 4, 5 or 6 mg dosages, four week treatment period, placebo 23.4%): 47.6%
attempts successful: erection firm enough for intercourse attained (single sublingual tablet, pooled 2, 4, 5 or 6 mg dosages, four week treatment period, placebo 26%): 48%
